In patent publication US11530210B2, “Substituted heteroaromatic pyrazolo-pyridines and their use as GLUN2B receptor modulators” (JANSSEN PHARMACEUTICA NV, priority 2019, dated 2022):

biological target: T1, human GluN1/GluN2B NMDA receptors (Homo sapiens, UniProt Q13224); test: Calcium flux (FLIPR) assay on cloned human NR1/GluN2B ion channels expressed in mammalian cells (standard and HTS variants); type: cell-based; conditions: cells expressing human GluN1/GluN2B, glutamate and glycine co-agonists
T1 construct: expressed in transfected cells
T1 sequence (Q13224 27-1484, other chains not shown): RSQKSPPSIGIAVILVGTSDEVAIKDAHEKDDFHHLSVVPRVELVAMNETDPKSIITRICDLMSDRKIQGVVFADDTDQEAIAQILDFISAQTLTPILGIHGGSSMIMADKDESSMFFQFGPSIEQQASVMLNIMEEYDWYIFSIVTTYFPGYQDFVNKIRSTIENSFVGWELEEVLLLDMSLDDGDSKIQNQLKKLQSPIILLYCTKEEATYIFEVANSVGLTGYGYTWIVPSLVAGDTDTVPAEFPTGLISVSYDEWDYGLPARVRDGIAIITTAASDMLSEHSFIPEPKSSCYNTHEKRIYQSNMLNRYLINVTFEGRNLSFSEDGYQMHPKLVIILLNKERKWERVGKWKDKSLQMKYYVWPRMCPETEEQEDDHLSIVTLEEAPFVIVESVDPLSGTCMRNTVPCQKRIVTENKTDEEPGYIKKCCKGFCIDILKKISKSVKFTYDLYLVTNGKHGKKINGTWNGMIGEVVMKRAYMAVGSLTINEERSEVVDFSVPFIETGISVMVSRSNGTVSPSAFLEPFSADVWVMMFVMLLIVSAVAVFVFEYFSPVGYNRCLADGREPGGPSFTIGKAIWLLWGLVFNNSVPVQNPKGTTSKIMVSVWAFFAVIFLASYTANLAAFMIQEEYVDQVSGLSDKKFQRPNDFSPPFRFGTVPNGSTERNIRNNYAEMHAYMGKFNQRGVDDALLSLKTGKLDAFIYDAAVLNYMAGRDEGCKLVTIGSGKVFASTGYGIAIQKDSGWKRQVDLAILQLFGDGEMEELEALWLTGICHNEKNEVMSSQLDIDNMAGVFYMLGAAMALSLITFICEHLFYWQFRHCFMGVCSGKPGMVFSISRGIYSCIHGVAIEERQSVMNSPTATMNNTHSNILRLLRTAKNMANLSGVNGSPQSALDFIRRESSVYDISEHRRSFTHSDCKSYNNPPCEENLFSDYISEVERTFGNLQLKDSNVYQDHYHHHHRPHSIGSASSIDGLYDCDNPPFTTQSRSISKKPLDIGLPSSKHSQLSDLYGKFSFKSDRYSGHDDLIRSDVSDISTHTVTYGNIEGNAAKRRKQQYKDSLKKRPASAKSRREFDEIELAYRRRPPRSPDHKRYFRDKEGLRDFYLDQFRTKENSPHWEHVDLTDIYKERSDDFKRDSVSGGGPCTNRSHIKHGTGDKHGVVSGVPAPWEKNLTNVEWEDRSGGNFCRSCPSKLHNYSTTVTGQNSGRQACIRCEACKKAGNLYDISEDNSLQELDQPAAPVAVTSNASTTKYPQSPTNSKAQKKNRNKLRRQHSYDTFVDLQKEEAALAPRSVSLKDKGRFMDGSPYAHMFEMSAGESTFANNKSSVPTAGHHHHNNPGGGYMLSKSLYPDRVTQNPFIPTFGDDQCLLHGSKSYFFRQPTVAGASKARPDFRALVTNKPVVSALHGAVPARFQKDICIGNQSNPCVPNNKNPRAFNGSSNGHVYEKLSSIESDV
How it was run: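 Tet-On-induced stable cell line loaded with Calcium 5 dye; compounds applied 5 min (agonist check), then glutamate at ~EC40 plus 10 μM glycine for 5 min. Buffer pH 7.4 with 0.5 mM MgCl2 in dye loading (standard) or 1.5 mM (HTS). FLIPR fluorescence normalized to control wells; (+)MK-801 as antagonist control.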

Structure (SMILES) | IC50 [nM]
Cc1nnc(Cn2nc(F)c3ncc(-c4ccc(F)c(C(C)(F)F)c4)cc32)o1 [Example 105, 2-[[6-[3-(1,1-Difluoroethyl)-4-fluoro-phenyl]-3-fluoro-pyrazolo[4,3-b]pyridin-1-yl]methyl]-5-methyl-1,3,4-oxadiazole] | 367
Cc1nnc(Cn2ncc3ncc(-c4ccc(Cl)c(C(F)F)c4)cc32)o1 [Example 106, 2-[[6-[4-Chloro-3-(difluoromethyl)phenyl]pyrazolo[4,3-b]pyridin-1-yl]methyl]-5-methyl-1,3,4-oxadiazole] | 115
Cc1nnc(Cn2nc(F)c3ncc(-c4ccc(Cl)c(C(F)F)c4)cc32)o1 [Example 107, 2-[[6-[4-Chloro-3-(difluoromethyl)phenyl]-3-fluoro-pyrazolo[4,3-b]pyridin-1-yl]methyl]-5-methyl-1,3,4-oxadiazole] | 347
Cc1noc(Cn2ncc3ncc(-c4cc(F)cc(C(F)(F)F)c4)cc32)n1 [Example 108, 5-[[6-[3-Fluoro-5-(trifluoromethyl)phenyl]pyrazolo[4,3-b]pyridin-1-yl]methyl]-3-methyl-1,2,4-oxadiazole] | 815
Cc1noc(Cn2ncc3ncc(-c4ccc(F)c(C(F)(F)F)c4)cc32)n1 [Example 110, 5-[[6-[4-Fluoro-3-(trifluoromethyl)phenyl]pyrazolo[4,3-b]pyridin-1-yl]methyl]-3-methyl-1,2,4-oxadiazole] | 400
Cc1noc(Cn2ncc3ncc(-c4ccc(F)c(OC(F)F)c4)cc32)n1 [Example 112, 5-[[6-[3-(Difluoromethoxy)-4-fluoro-phenyl]pyrazolo[4,3-b]pyridin-1-yl]methyl]-3-methyl-1,2,4-oxadiazole] | 289
Cc1nnc(Cn2ncc3ncc(-c4ccc(F)c(OC(F)F)c4)cc32)o1 [Example 113, 2-[[6-[3-(Difluoromethoxy)-4-fluoro-phenyl]pyrazolo[4,3-b]pyridin-1-yl]methyl]-5-methyl-1,3,4-oxadiazole] | 104
Cc1nnc(Cn2ncc3ncc(-c4ccc(Cl)c(OC(F)F)c4)cc32)o1 [Example 116, 2-[[6-[4-Chloro-3-(difluoromethoxy)phenyl]pyrazolo[4,3-b]pyridin-1-yl]methyl]-5-methyl-1,3,4-oxadiazole] | 283
Cc1nnc(Cn2ncc3ncc(-c4ccc(F)c(C)c4F)cc32)o1 [Example 118, 2-[[6-(2,4-Difluoro-3-methyl-phenyl)pyrazolo[4,3-b]pyridin-1-yl]methyl]-5-methyl-1,3,4-oxadiazole] | 35

Second part, the molecule after the results:

IC50 [nM] | Structure (SMILES)
3260 | Cc1noc(Cn2ncc3ncc(-c4cc(C(F)(F)F)ccc4F)cc32)n1 [Example 109, 5-[[6-[2-Fluoro-5-(trifluoromethyl)phenyl]pyrazolo[4,3-b]pyridin-1-yl]methyl]-3-methyl-1,2,4-oxadiazole]
183 | Cc1noc(Cn2ncc3ncc(-c4cccc(C(F)(F)F)c4F)cc32)n1 [Example 111, 5-[[6-[2-Fluoro-3-(trifluoromethyl)phenyl]pyrazolo[4,3-b]pyridin-1-yl]methyl]-3-methyl-1,2,4-oxadiazole]
279 | Cc1nc(Cn2ncc3ncc(-c4ccc(F)c(OC(F)F)c4)cc32)no1 [Example 114, 3-[[6-[3-(Difluoromethoxy)-4-fluoro-phenyl]pyrazolo[4,3-b]pyridin-1-yl]methyl]-5-methyl-1,2,4-oxadiazole]
414 | Fc1ccc(-c2cnc3cnn(Cc4nnc(C(F)(F)F)o4)c3c2)cc1OC(F)F [Example 115, 2-[[6-[3-(Difluoromethoxy)-4-fluoro-phenyl]pyrazolo[4,3-b]pyridin-1-yl]methyl]-5-(trifluoromethyl)-1,3,4-oxadiazole]
655 | Cc1nnc(Cn2nc(F)c3ncc(-c4ccc(Cl)c(OC(F)F)c4)cc32)o1 [Example 117, 2-[[6-[4-Chloro-3-(difluoromethoxy)phenyl]-3-fluoro-pyrazolo[4,3-b]pyridin-1-yl]methyl]-5-methyl-1,3,4-oxadiazole]
